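Where inhibition never reached the appropriate level, the endpoint shown equals the highest concentration tested. Otherwise, values were interpolated linearly from a five-concentration, 48-hour dose response in 96-well plates. GI50 is the concentration that inhibits growth by half.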 Calls of active or inactive are those of the source. Cut-off read from the data, not from the text of the source: active = GI50 up to about 1.1 µM and inactive = higher.
Legend:
Test in all cases: NCI tumour cell line growth inhibition, 48 h
MDA-MB-435 = test system: MDA-MB-435
TK-10 = test system: TK-10
ACHN = test system: ACHN
MDA-N = test system: MDA-N
K562 = test system: K562
NCI-H460 = test system: NCI-H460
SF-295 = test system: SF-295
SNB-75 = test system: SNB-75
LOX IMVI = test system: LOX IMVI
MCF7 = test system: MCF7
UACC-257 = test system: UACC-257
BT-549 = test system: BT-549
A498 = test system: A498
SK-MEL-2 = test system: SK-MEL-2
T47D = test system: T47D
OVCAR-5 = test system: OVCAR-5
NCI-H23 = test system: NCI-H23
786-0 = test system: 786-0
SR = test system: SR
HT-29 = test system: HT-29

| Compound | GI50 (MDA-MB-435) | GI50 (TK-10) | GI50 (ACHN) | GI50 (MDA-N) | GI50 (K562) | GI50 (NCI-H460) | GI50 (SF-295) | GI50 (SNB-75) | GI50 (LOX IMVI) | GI50 (MCF7) | GI50 (UACC-257) | GI50 (BT-549) | GI50 (A498) | GI50 (SK-MEL-2) | GI50 (T47D) | GI50 (OVCAR-5) | GI50 (NCI-H23) | GI50 (786-0) | GI50 (SR) | GI50 (HT-29) |
| --- | --- | --- | --- | --- | --- | --- | --- | --- | --- | --- | --- | --- | --- | --- | --- | --- | --- | --- | --- | --- |
| COc1ncc(C#CC(=O)c2ccccc2OC)c(OC)n1 | 2.78 µM (inactive) | 0.891 µM (active) | 1.69 µM (inactive) | 1.64 µM (inactive) | 0.39 µM (active) | 6.34 µM (inactive) | 16.9 µM (inactive) | 4.03 µM (inactive) | 0.281 µM (active) | 0.736 µM (active) | 3.52 µM (inactive) | 1.93 µM (inactive) | 18.4 µM (inactive) | 2.3 µM (inactive) | 2.93 µM (inactive) | 3.41 µM (inactive) | 2.73 µM (inactive) | 1.86 µM (inactive) | 0.202 µM (active) | 1.57 µM (inactive) |
| CC(=O)Oc1ccc(-c2cc3ccccc3oc2=O)cc1 | > 100 µM (inactive) | > 100 µM (inactive) | > 100 µM (inactive) | > 100 µM (inactive) | 83.4 µM (inactive) | > 100 µM (inactive) | 43.9 µM (inactive) | 56.6 µM (inactive) | 81.3 µM (inactive) | > 100 µM (inactive) | > 100 µM (inactive) | > 100 µM (inactive) | 38.9 µM (inactive) | > 100 µM (inactive) | 52.8 µM (inactive) | > 100 µM (inactive) | > 100 µM (inactive) | > 100 µM (inactive) | 56.9 µM (inactive) | > 100 µM (inactive) |
| C[Si](C)(c1ccccc1)[C@H]1CCCC=C1CCNC1c2ccccc2CCc2ccccc21 | 76.2 µM (inactive) | > 100 µM (inactive) | 67.5 µM (inactive) | 70.5 µM (inactive) | 52.1 µM (inactive) | 61.7 µM (inactive) | 40.6 µM (inactive) | 67.3 µM (inactive) | 70.6 µM (inactive) | 53 µM (inactive) | 52.4 µM (inactive) | > 100 µM (inactive) | 69.2 µM (inactive) | > 100 µM (inactive) | 35.9 µM (inactive) | > 100 µM (inactive) | 61.5 µM (inactive) | > 100 µM (inactive) | 36.6 µM (inactive) | 28.7 µM (inactive) |
| Nc1onc2c1Cc1c(noc1N)-c1ccccc1-2 | 25.2 µM (inactive) | > 100 µM (inactive) | 35.4 µM (inactive) | 48.9 µM (inactive) | 41.3 µM (inactive) | > 100 µM (inactive) | 65.2 µM (inactive) | 33.2 µM (inactive) | 32.6 µM (inactive) | 49.7 µM (inactive) | 74.3 µM (inactive) | 17.5 µM (inactive) | 26.7 µM (inactive) | 61.2 µM (inactive) | 27 µM (inactive) | > 100 µM (inactive) | 53.6 µM (inactive) | 79.3 µM (inactive) | 35.2 µM (inactive) | 80.4 µM (inactive) |
| c1c2c(cc3c1OCO3)-c1cc3ccc4c(c3c[n+]1CC2)OCO4 [COPTISINE CHLORIDE] | 0.308 µM (active) | > 12.5 µM (inactive) | 2.5 µM (inactive) | 0.299 µM (active) | 0.486 µM (active) | 0.53 µM (active) | 0.927 µM (active) | 1.28 µM (inactive) | 1.01 µM (active) | 1.24 µM (inactive) | 1.95 µM (inactive) | > 5.85 µM (inactive) | 4.73 µM (inactive) | 0.555 µM (active) | 3.13 µM (inactive) | > 12.5 µM (inactive) | 0.815 µM (active) | 4.2 µM (inactive) | 0.486 µM (active) | 5.65 µM (inactive) |
| CC(=O)OC1CC(O)CC2=CCC3C4CCC(C(C)(O)C(O)CC5COC(=O)C5C)C4(C)CCC3C21C (stereo not given) | > 25 µM (inactive) | > 25 µM (inactive) | > 25 µM (inactive) | > 25 µM (inactive) | 18.4 µM (inactive) | > 25 µM (inactive) | > 25 µM (inactive) | 7.08 µM (inactive) | > 25 µM (inactive) | > 25 µM (inactive) | > 25 µM (inactive) | > 25 µM (inactive) | > 25 µM (inactive) | > 25 µM (inactive) | > 25 µM (inactive) | > 25 µM (inactive) | > 25 µM (inactive) | > 25 µM (inactive) | 13.6 µM (inactive) | > 25 µM (inactive) |
| C/C(=N\NC(N)=O)C(CN(C)C)C(c1ccccc1)c1c(O)c2ccccc2oc1=O (stereo not given) | > 100 µM (inactive) | > 100 µM (inactive) | > 100 µM (inactive) | > 100 µM (inactive) | > 100 µM (inactive) | > 100 µM (inactive) | > 100 µM (inactive) | > 100 µM (inactive) | > 100 µM (inactive) | > 100 µM (inactive) | > 100 µM (inactive) | > 100 µM (inactive) | > 100 µM (inactive) | > 100 µM (inactive) | > 100 µM (inactive) | > 100 µM (inactive) | > 100 µM (inactive) | > 100 µM (inactive) | > 100 µM (inactive) | > 100 µM (inactive) |
| Cc1ncc([N+](=O)[O-])n1CCNS(=O)(=O)CCCn1ncnc1[N+](=O)[O-] | > 100 µM (inactive) | > 100 µM (inactive) | > 100 µM (inactive) | > 100 µM (inactive) | > 100 µM (inactive) | > 100 µM (inactive) | > 100 µM (inactive) | > 100 µM (inactive) | > 100 µM (inactive) | > 100 µM (inactive) | > 100 µM (inactive) | > 100 µM (inactive) | > 100 µM (inactive) | > 100 µM (inactive) | > 100 µM (inactive) | > 100 µM (inactive) | > 100 µM (inactive) | > 100 µM (inactive) | > 100 µM (inactive) | > 100 µM (inactive) |
| O=C1C2CCCCC2C(=O)N1n1c(-c2ccccc2)n[nH]c1=O (stereo not given) | > 100 µM (inactive) | > 100 µM (inactive) | > 100 µM (inactive) | > 100 µM (inactive) | > 100 µM (inactive) | > 100 µM (inactive) | > 100 µM (inactive) | > 100 µM (inactive) | > 100 µM (inactive) | > 100 µM (inactive) | > 100 µM (inactive) | > 100 µM (inactive) | > 100 µM (inactive) | > 100 µM (inactive) | > 100 µM (inactive) | > 100 µM (inactive) | > 100 µM (inactive) | > 100 µM (inactive) | > 100 µM (inactive) | > 100 µM (inactive) |
